Measured values reported in patent EP2662079A1 (Ordway Research Institute, Inc., priority 2012, dated 2013).
Several values for one entry are separate records, joined by “and”; a condition that tells them apart may be missing. Equal entries are not always repeated.

Key:
GL261 cells = test: Cell multiplicity after Tetrac exposure; assay type: cell-based, murine; conditions: after one hour exposure to Tetrac
Protocol: Cell multiplicity (CM) was determined from Giemsa stained slides by counting the number of cells per microcolony under 20 X magnification. At least 400 microcolonies were counted.
The length of time that Tetrac biologically affected GL261 cells was also determined. To do this, the multiplicity relationship defined above was utilized. Tetrac was added to cells one hour prior to the determination of the multiplicity. After the exposure of exponentially growing GL261 cells to Tetrac, the Tetrac containing medium was removed from GL261 cells, which contained an unknown residual and fresh medium (without Tetrac) was added. As a function of time (i.e., 0, 1, 2, 3, 4, 6, 8, and 10 hours, and 1-6 days), the cells, containing an unknown residual amount of remaining Tetrac, were then processed for determination of the multiplicity index (i.e. the number of cells per microcolony).

U87MG cells = test: Clonogenic survival after 250 kVp x-irradiation; assay type: cell-based, human
Protocol: To irradiate culture flasks, a Philips 250 kVp x-ray machine (Philips Corp., Fall River, MA) operated at 250 kVp and 15 mA with added filtration of a 0.4 mm Thoreaus filter was used. The target to source distance was 30 cm. Dose rates were measured using an R-meter (Victoreen Co., Cleveland, OH), and converted to absorbed (Gy) doses using appropriate temperature, pressure, and R to Gy conversion factors. The dose rate was approximately 1 Gy/min. Flasks were irradiated after being taken from a 37°C environment and moved to the x-ray source. Movement at ambient temperature took approximately 1-2 min. Cells were next placed on ice and allowed to cool for 5 min. Lastly, flasks were placed in the Philips irradiator on top of a 2 mm thickness of Lucite which was on top of a layer of crushed ice. […]
For SHMT analysis, data lying at or below a fractional survival (FxS) value of 0.368 were fit using a linear regression analysis of the log survival data versus linear dose. From this fit the extrapolation number (n), the quasi-threshold dose (Dq, Gy) and the inverse of the inactivation slope (Do, Gy) were derived.
For LQ analyses, survival data lying between the fractional survivals of 1.00 and 0.05 were used. The log survival data were transformed to a linear form using the relationship (- ln FxS/D) and plotted against D. A linear regression analysis was performed to yield the LQ equation along with the 95% confidence limits on the γ-intercept (alpha) and the slope (beta) using a t-table with the appropriate (N-1) degrees of freedom. (See Goldstein A. Biostatistics, Academic Press, 1995.)

[1] = tested on: GL261 murine brain tumor cells; test: Clonogenic survival after single doses of 250 kVp x-rays; assay type: cell-based; conditions: for α (Gy^-1) / β (Gy^-2): LQ; for SF2: survival at 2 Gy
Protocol: To irradiate 25 cm^2 flasks, an x-ray machine was used and (Philips 250 kVp Therapeutic X-ray Machine, Einhoven, Germany) operated at 250 kVp and 15 mA with added filtration of 0.4 mm Thoreaus filter. The target to source distance was approximately 30 cm. Dose rates were measured using an R-meter (Victoreen R-meter, Cleveland, OH), and converted to absorbed (Gy) doses using appropriate temperature, pressure, and R to Gy conversion factors. The dose rate was 1 Gy per min. Flasks were irradiated at ambient temperature.
Experimental cells and FCs were added to treatment flasks before irradiation, and were then allowed to attach to the surfaces of the flask and incubated at 37°C for 1 hour. After incubation the flasks were irradiated using the 250 kVp x-ray source.
For […] analyses, survival data lying at or below 36.8% survival were analyzed by using the log fractional survival (log FxS) versus dose (D). Data were fit using linear regression analysis (SigmaPlot, V. 10, Systat Corp., Point Richmond, CA) to obtain the Y-intercept (or n, the extrapolation number) and the slope (1/D0), and their 95% confidence limits. (See Goldstein, A. In: Biostatistics, New York, The MacMillan Co., 1964, p. 140-146).. The Do value (Gy) is defined as the inverse of the slope, and the corrected Dq value (Gy) was then defined using the relationship: Dq(Gy) = ln n x D0 (Gy) [formula] The 95% confidence limits on Dq were defined using error propagation. (See Chase, et al., In: Principles of Radioisotope Methodology. Minneapolis, MN. Burgess Publ. Co., 1962, p. 68, 87-90).
For LQ analyses, data lying between a fractional survival of 1.00 and 0.05 were used. The fractional survival data at each dose were transformed using the relationship (-In FxS/D) and plotted against dose (D). A regression analysis was performed to yield the LQ equation along with their 95% confidence limit values using a t-table with the appropriate (N-1) degrees of freedom. (See Goldstein, A. In: Biostatistics, New York, The MacMillan Co., 1964, p. 140-146).
To determine the Tetrac modification factor (TMF), the survival at 2 Gy obtained for control cells was divided by the survival at 2 Gy for Tetrac treated cells. The 95% confidence limits on the ratio were determined using error propagation techniques. (See Chase, et al. In: Princiiples of Radioisotope Methodology, Minneapolis, MN, Burgress Publ. Co., 1962, p. 68, 87-90).

[2] = Exponential Phase (with Tetrac)
[3] = Unfed plateau Phase (with Tetrac)
[4] = SHMT, Unfed plateau Phase (with Tetrac)

In the case of `O=C(O)Cc1cc(I)c(Oc2cc(I)c(O)c(I)c2)c(I)c1` [Tetrac, 3,3',5,5'-tetraiodothyroacetic acid], the “time for a 50% return of the cell multiplicity factor towards control level” value (GL261 cells) is reported as “approximately 2.5 days”, the “time post Tetrac treatment at which decrease in the CM factor was recorded at 50%” value (GL261 cells) is reported as 60 h and the “increase of α (ratio of the alpha values)” value (U87MG cells) is reported as 3.6 fold. The “increase of β” value (U87MG cells) was 4.8 fold, the median sensitization factor (U87MG cells) was 3.6 and the “ratio of relative survival values at 2 Gy” value (U87MG cells) was 4.6. The “reduction of the DQ value” (U87MG cells) was 100%, the “reduction of the Do value” (U87MG cells) was 31% and the α (U87MG cells; LQ, Tetrac treated cells) was 0.817 (± 0.091). For the same compound, the β (U87MG cells; LQ, Tetrac treated cells) was 0.076 (± 0.006), the “DQ (Gy)” value (U87MG cells; SHMT, Tetrac treated cells) was 0.00 ± 0.22 Gy and the “Do (Gy)” value (U87MG cells; SHMT, Tetrac treated cells) was 1.09 ± 0.36 Gy. The “relative survival at 2 Gy” value (U87MG cells; Tetrac treated cells (control 59.6)) was 12.8, the isoeffect comparison ratio (U87MG cells; at 10% survival) was 2.2 and the average sensitization factor (U87MG cells; average of 3 comparisons, range of 2.2 to 4.6) was 3.5. For the same compound, the “α (Gy^-1)” value [1, 2] was 0.930 Gy^-1, the “β (Gy^-2)” value [1, 2] was 0.003 Gy^-2 and the “α (Gy^-1)” value [1, 3] was 1.157 Gy^-1. The “β (Gy^-2)” value [1, 3] was 0.066 Gy^-2, the “D0 (Gy)” value ([1]; SHMT, Exponential phase (with Tetrac)) was 1.08 Gy and 1.08 (0.09). Gy and the “D0 (Gy)” value [1, 4] was 0.75 Gy. The “Dq (Gy)” value [1, 4] was 0.00 Gy, the “sensitization of oxic and hypoxic cells” value ([1]; Tetrac 2µM, graded doses of 250 kVp x-rays (Figure 60)) was “sensitize both oxic and hypoxic cells equally” and the “survival at 2 Gy” value ([1]; Tetrac treated cells (non-Tetrac treated 32%)) was 13%. For the same compound, the “increase of the Do value” ([1]; exponentially growing cells) was 15%, the “reduction of the Dq value” ([1]; exponentially growing cells) was 100% and the “reduction of the extrapolation number” value ([1]; exponentially growing cells) was 93%. The reduction of n ([1]; plateau phase cells) was 93%, the “reduction of the Do” value ([1]; plateau phase cells) was 6% and the “reduction of the Dq” value ([1]; plateau phase cells) was 100%. The SF2 [1, 2] was 14.2% and the SF2 [1, 3] was 7.62 (6.82 - 8.51) %.
